Results from patent US5935829A, “Mutation assays involving blood cells that metabolize toxic substances” (priority 1992, dated 1999).
Like-named read-outs stand apart in the source and are kept apart here.

Columns and labels:
[1] = tested on: AHH activity of AHH-1 cells; type: cell-based, human
Experimental: (§1) The quantity of 3-hydroxy BaP was measured by fluorescent intensity activated by a light wavelength of 396 nm and measured at 522 nm using a spectrofluorimeter (Farrand Model Mk-1, Valhalla, N.Y.).
After growth of the cells in culture medium with gentamycin and kanamycin, the cells were plated in microtiter plates at a density of about 0.2 cells per well. Colonies were isolated and characterized for BaP-induced growth inhibition. A total of 47 colonies were isolated and contacted with 40 uM BaP. In its normal state, BaP is not highly cytotoxic or mutagenic; however, if metabolized by oxidative activity into one or more epoxides or phenols, the metabolites tend to be toxic and mutagenic.
6-TG resistant clones were characterized for AHH activity by measuring the rate of production of 3-OH benzopyrene, a fluorescent metabolite of BaP which is created by AHH activity.

in vitro [2] = type: cell-based, human; settings: human, g6-a5 cells, G6-A5 clone, read-out: Relative Survival
Text: (§2) Following the benzo(ghi)perylene selection and after plating in microtitre plates, colonies were isolated and analyzed for MFO activity and PE. […] Several of these subclones were used to detect the mutagenic activity of benzo(a)pyrene, a chemical known to require oxidative metabolism for mutagenicity.

G6-A5 cells = assay: in vitro; type: cell-based, human; settings: several subclones, exposed directly
Text: as §2

[3] = tested on: AHH activity of 6-TG resistant AHH-1 clones; assay: AHH activity induced by BaP in AHH-1 cells resistant to 6-TG; type: cell-based, human; settings: 10 μM BaP, 24 hours
Experimental: as §1, with “3-hydroxy BaP per 10^6 cells per minute. The” for “The”, “N.Y.). This could be induced to about 0.3 pmole of 3-hydroxy BaP per 10^6 cells per minute.” for “N.Y.).”
6-TG resistant clones were characterized for AHH activity by measuring the rate of production of 3-OH benzopyrene, a fluorescent metabolite of BaP which is created by AHH activity. […].

in vitro [4] = settings: human, ahh-1 cells, RELATIVE SURVIVAL; for viability at 48 h, 10 µM: 10 μM × 48 hours; for viability at 48 h, 20 µM: 20 μM × 48 hours
human cells = settings: literature ref. 15; cited from earlier work
[5] = 0.3 μM × 24 hours, induction BP

Question: Which “AHH Activity Induced by B(α)P” value [1] does the source give for `c1ccc2c(c1)cc1ccc3cccc4ccc2c1c34` [BaP, benzo(a)pyrene] here?
Answer: 2.04 pmole 3OHBP/10^6 cells/minute

Question: And the “induction of AHH activity” value [1]?
Answer: inducers

Question: What about the viability at 24 h (in vitro [2]; 0.1 μg/ml) of the same compound?
Answer: 37%

Question: And the viability at 24 h (in vitro [2]; 0.2 μg/ml, 24 hour treatment)?
Answer: 41%

Question: What about the “mutation of G6-series subclones to a statistically significant degree” value (G6-A5 cells) of the same compound?
Answer: mutated to a statistically significant degree

Question: What about the “AHH Activity Induced by B(α)P” value ([3]; clone BP-1) of the same compound?
Answer: 1.64 pmole 3OHBP/10^6 cells/minute

Question: And the “AHH Activity Induced by B(α)P” value ([3]; clone BP-2)?
Answer: 2.36 pmole 3OHBP/10^6 cells/minute

Question: And the “AHH Activity Induced by B(α)P” value ([3]; clone BP-3)?
Answer: 1.88 pmole 3OHBP/10^6 cells/minute

Question: What about the “AHH Activity Induced by B(α)P” value ([3]; clone BP-4) of the same compound?
Answer: 2.76 pmole 3OHBP/10^6 cells/minute

Question: And the “AHH Activity Induced by B(α)P” value ([3]; clone BP-5)?
Answer: 0.72 pmole 3OHBP/10^6 cells/minute

Question: What about the “AHH Activity Induced by B(α)P” value ([3]; clone BP-6) of the same compound?
Answer: 1.88 pmole 3OHBP/10^6 cells/minute

Question: And the “AHH Activity Induced by B(α)P” value ([3]; clone BP-7)?
Answer: 1.84 pmole 3OHBP/10^6 cells/minute

Question: What about the “AHH Activity Induced by B(α)P” value ([3]; mean TG^R clones) of the same compound?
Answer: 1.87 pmole 3OHBP/10^6 cells/minute

Question: And the “MUTANT FRACTION × 10^6, MEAN ± STD.DEV.” value (AHH-1 cells; [5])?
Answer: 3.4 ± 0.5 × 10^6

Question: And the “MUTANT FRACTION × 10^6, MEAN ± STD.DEV.” value (AHH-1 cells; 1 μM × 24 hours, induction BP)?
Answer: 4.9 ± 0.9 × 10^6

Question: And the “MUTANT FRACTION × 10^6, MEAN ± STD.DEV.” value (AHH-1 cells; 3 μM × 24 hours, induction BP)?
Answer: 6.1 ± 1 × 10^6

Question: And the “MUTANT FRACTION × 10^6, MEAN ± STD.DEV.” value (AHH-1 cells; 10 μM × 24 hours, induction BP)?
Answer: 12.7 ± 1.5 × 10^6

Question: And the “MUTANT FRACTION × 10^6, MEAN ± STD.DEV.” value (AHH-1 cells; 30 μM × 24 hours, induction BP)?
Answer: 18.2 ± 2.1 × 10^6

Question: What about the viability at 24 h, 0.3 µM (in vitro [4]; [5]) of the same compound?
Answer: 87%

Question: And the viability at 24 h, 1 µM (in vitro [4]; 1 μM × 24 hours, induction BP)?
Answer: 102%

Question: What about the viability at 24 h, 3 µM (in vitro [4]; 3 μM × 24 hours, induction BP) of the same compound?
Answer: 74%

Question: What about the viability at 24 h, 10 µM (in vitro [4]; 10 μM × 24 hours, induction BP) of the same compound?
Answer: 82%

Question: What about the viability at 24 h, 30 µM (in vitro [4]; 30 μM × 24 hours, induction BP) of the same compound?
Answer: 75%

Question: With `c1cc2cccc3c4cccc5cccc(c(c1)c23)c54` [Per, perylene] as the compound, how does the “MUTANT FRACTION × 10^6, MEAN ± STD.DEV.” value (AHH-1 cells; 10 μM × 48 hours, induction BNF) read?
Answer: 2.7 ± 0.6 × 10^6

Question: What about the “MUTANT FRACTION × 10^6, MEAN ± STD.DEV.” value (AHH-1 cells; 10 μM × 48 hours, induction none) of the same compound?
Answer: 3.2 ± 0.75 × 10^6

Question: What about the “MUTANT FRACTION × 10^6, MEAN ± STD.DEV.” value (AHH-1 cells; 20 μM × 48 hours, induction BNF) of the same compound?
Answer: 2.7 ± 0.6 × 10^6

Question: What about the “MUTANT FRACTION × 10^6, MEAN ± STD.DEV.” value (AHH-1 cells; 20 μM × 48 hours, induction none) of the same compound?
Answer: 1.9 ± 0.5 × 10^6

Question: What about the viability at 48 h, 10 µM (in vitro [4]; induction BNF) of the same compound?
Answer: 89%

Question: What about the viability at 48 h, 10 µM (in vitro [4]; induction none) of the same compound?
Answer: 93%

Question: And the viability at 48 h, 20 µM (in vitro [4]; induction BNF)?
Answer: 89%

Question: What about the viability at 48 h, 20 µM (in vitro [4]; induction none) of the same compound?
Answer: 95%

Question: And the “mutagenicity for human cells” value (human cells)?
Answer: not a mutagen for human cells
